Here are results for 47 molecules from US8901138B2, “Sulfoximine substituted quinazolines for pharmaceutical compositions” (Boehringer Ingelheim International GmbH, priority 2012, dated 2014).

One assay has as its target MNK1a (Homo sapiens, UniProt Q9BUB5). The assay is described as follows: MNK1 in vitro kinase assay (assay 2), Z'-LYTE. It is filed as biochemical. The conditions noted are these: for inhibition at 1 µM: compound concentration of 1 μM; for IC50: pre-activated GST-MNK1a. The gist of the method: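 Pre-activated GST-MNK1a (13.5-54 ng) with 2 μM Ser/Thr 07 FRET peptide in 50 mM HEPES pH 7.5, 10 mM MgCl2, 2 mM MnCl2, 1 mM EGTA, 1 mM DTT, 1% DMSO; 1 h kinase then 1 h development at room temperature. Coumarin/fluorescein emission ratio gives % phosphorylation; sigmoidal dose-response fit.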

A further assay concerns the target T1, MNK2a (Homo sapiens, UniProt Q9HBH9).
T1 construct: made in house
The assay is described as follows: MNK2a in vitro kinase assay (assay 1), ADP-Glo. It is filed as biochemical. As to conditions: preactivated GST-MNK2a, 20 μM ATP, read-out: MNK2 IC50. The procedure, abridged: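 Preactivated GST-MNK2a (10 nM) with eIF4E peptide (25 μM) and ATP (20 μM) in HEPES/DTT/MgCl2 buffer, 90 min at room temperature, final DMSO <3%. ADP formed read by ADP-Glo luminescence and normalised to vehicle and 20 μM reference-inhibitor controls; IC50 from dose-response curves.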

Chain of MNK1a (Q9BUB5 1-424 isoform Q9BUB5-2): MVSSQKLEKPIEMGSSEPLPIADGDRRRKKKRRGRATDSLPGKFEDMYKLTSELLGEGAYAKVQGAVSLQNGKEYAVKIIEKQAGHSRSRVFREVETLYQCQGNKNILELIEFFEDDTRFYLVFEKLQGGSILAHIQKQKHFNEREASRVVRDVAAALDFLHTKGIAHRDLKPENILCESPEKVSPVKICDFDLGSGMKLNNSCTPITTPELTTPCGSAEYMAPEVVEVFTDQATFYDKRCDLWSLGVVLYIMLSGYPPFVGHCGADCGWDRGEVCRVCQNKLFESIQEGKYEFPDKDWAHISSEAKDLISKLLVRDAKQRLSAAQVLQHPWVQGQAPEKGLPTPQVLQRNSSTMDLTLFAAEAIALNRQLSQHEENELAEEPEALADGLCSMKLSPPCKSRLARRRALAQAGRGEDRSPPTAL
T1 sequence (Q9HBH9 whole entry): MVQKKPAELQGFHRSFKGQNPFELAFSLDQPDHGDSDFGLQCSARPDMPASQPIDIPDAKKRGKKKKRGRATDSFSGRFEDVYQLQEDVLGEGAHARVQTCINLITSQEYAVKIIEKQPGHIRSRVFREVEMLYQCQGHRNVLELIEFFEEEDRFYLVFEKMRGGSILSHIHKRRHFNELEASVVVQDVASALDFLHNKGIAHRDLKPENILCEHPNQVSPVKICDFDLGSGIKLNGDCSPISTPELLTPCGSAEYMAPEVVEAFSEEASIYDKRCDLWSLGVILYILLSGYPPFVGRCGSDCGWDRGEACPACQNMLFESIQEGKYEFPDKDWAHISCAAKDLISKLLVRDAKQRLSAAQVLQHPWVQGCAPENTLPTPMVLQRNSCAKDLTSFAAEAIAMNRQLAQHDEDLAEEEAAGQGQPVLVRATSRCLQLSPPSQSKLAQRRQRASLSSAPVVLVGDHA

Consider `Cc1cc(N=S(C)(=O)C2CCOCC2)cc2ncnc(Nc3ccc(F)cc3O[C@@H]3CO[C@@H]4CCO[C@@H]43)c12` (stereo partly shown) [Example 2.99], for which the inhibition at 1 µM against MNK1a came to 96%. Besides, the half-inhibitory concentration (IC50) on MNK2a amounted to 5 nM.

Consider `Cc1cc(N=S(C)(=O)c2ccncc2)cc2ncnc(Nc3ccc(F)cc3O[C@H]3CCOC3)c12` (stereo partly shown) [Example 2.100], for which the inhibition at 1 µM at MNK1a was 89%. Moreover, the IC50 at MNK2a stood at 6 nM.

Consider `Cc1cc(N=S(C)(=O)C2CCOCC2)cc2ncnc(Nc3ccc(F)cc3O[C@H]3CCOC3)c12` (stereo partly shown) [Example 2.101], for which the inhibition at 1 µM against MNK1a was 93%. For the same molecule, on MNK2a, the IC50 turned out to be 5 nM.

With `Cc1cc(N=S(C)(=O)c2cccnc2)cc2ncnc(Nc3ccc(F)cc3O[C@H]3CCOC3)c12` (stereo partly shown) [Example 2.102], the IC50 against MNK1a amounted to 131 nM; on MNK2a it was 5 nM.

With `Cc1cc(N=S(C)(=O)C2CC2)cc2ncnc(Nc3ccc(F)cc3O[C@H]3CCOC3)c12` (stereo partly shown) [Example 2.103], the IC50 on MNK1a is 82 nM; on MNK2a it was 7 nM.

In the case of `Cc1cc(N=S(C)(=O)C(C)C)cc2ncnc(Nc3ccc(F)cc3O[C@H]3CCOC3)c12` (stereo partly shown) [Example 2.104], the inhibition at 1 µM at MNK1a stood at 95%. Moreover, at MNK2a, the IC50 is 4 nM.

Consider `Cc1cc(N=S2(=O)CCC2)cc2ncnc(Nc3ccc(F)cc3O[C@@H]3CO[C@@H]4CCO[C@@H]43)c12` [Example 2.106], for which the inhibition at 1 µM against MNK1a came out at 98%. In addition, on MNK2a, the IC50 worked out at 1 nM.

Turning to `Cc1cc(N=S(C)(=O)CCN2CCCC2)cc2ncnc(Nc3ccc(F)cc3O[C@H]3CC[C@H](O)CC3)c12` (stereo partly shown) [Example 2.107], the IC50 on MNK1a worked out at 102 nM; at MNK2a, 10 nM.

With `Cc1cc(N=S(C)(=O)C(C)(C)C)cc2ncnc(Nc3ccc(F)cc3O[C@@H]3CO[C@@H]4CCO[C@@H]43)c12` (stereo partly shown) [Example 2.108], on MNK1a, the inhibition at 1 µM is 99%. The IC50 at MNK2a was 3 nM.

Consider `Cc1cc(N=S(C)(=O)C(C)C)cc2ncnc(Nc3ccc(F)cc3O[C@@H]3CO[C@@H]4CCO[C@@H]43)c12` (stereo partly shown) [Example 2.109], for which the inhibition at 1 µM on MNK1a is 100%. On MNK2a, the IC50 amounted to 2 nM.

Turning to `Cc1cc(N=S2(=O)CCC2)cc2ncnc(Nc3ccc(F)cc3O[C@H]3CC[C@H](O)CC3)c12` [Example 2.110], the inhibition at 1 µM against MNK1a was 100%. Also, the half-maximal inhibitory concentration (IC50) on MNK2a was 2 nM.

On to `Cc1cc(N=S(C)(=O)C(C)(C)C#N)cc2ncnc(Nc3ccc(F)cc3O[C@H]3CCOC3)c12` (stereo partly shown) [Example 2.111], for which the inhibition at 1 µM against MNK1a worked out at 89%. Besides, the IC50 at MNK2a came to 5 nM.

Take `Cc1cc(N=S(C)(=O)C(C)(C)C)cc2ncnc(Nc3ccc(F)cc3O[C@H]3CCOC3)c12` (stereo partly shown) [Example 2.112]: on MNK1a, the inhibition at 1 µM was found to be 89%. For the same molecule, the IC50 on MNK2a was 6 nM.

On to `Cc1cc(N=S(C)(=O)CCN(C)C)cc2ncnc(Nc3ccc(F)cc3O[C@H]3CC[C@H](O)CC3)c12` (stereo partly shown) [Example 2.113], for which the inhibition at 1 µM against MNK1a is 90%. Also, on MNK2a, the IC50 was 5 nM.

For the molecule `Cc1cc(N=S(C)(=O)C2CC2)cc2ncnc(Nc3ccc(F)cc3O[C@@H]3CO[C@@H]4CCO[C@@H]43)c12` (stereo partly shown) [Example 2.114], at MNK1a, the inhibition at 1 µM is 96%. The IC50 at MNK2a was found to be 2 nM.

As to `Cc1cc(N=S(C)(C)=O)cc2ncnc(Nc3ccc(F)cc3O[C@@H]3CO[C@H]4[C@@H]3OC[C@@H]4F)c12` [Example 2.116], on MNK1a, the inhibition at 1 µM was found to be 100%. The IC50 at MNK2a stood at 2 nM.

As to `Cc1cc(N=S2(=O)CCCC2)cc2ncnc(Nc3ccc(F)cc3O[C@@H]3CO[C@H]4[C@@H]3OC[C@@H]4F)c12` [Example 2.117], the inhibition at 1 µM on MNK1a was found to be 101%. On MNK2a, the IC50 came to 1 nM.

Consider `Cc1cc(N=S(C)(C)=O)cc2ncnc(Nc3ccc(F)cc3OC3COCOC3)c12` [Example 2.120], for which, on MNK1a, the inhibition at 1 µM was determined as 103%. For the same molecule, on MNK2a, the IC50 was 2 nM.

As for `Cc1cc(N=S(C)(C)=O)cc2ncnc(Nc3ccc(F)cc3O[C@@H]3CO[C@@H]4CCO[C@@H]43)c12` [Example 2.121], the inhibition at 1 µM against MNK1a was found to be 89%. Also, the IC50 at MNK2a worked out at 4 nM.

For the molecule `Cc1cc(N=S(C)(C)=O)cc2ncnc(Nc3ccc(F)cc3O[C@@H]3CO[C@@H]4CCC[C@@H]43)c12` [Example 2.122], the inhibition at 1 µM at MNK1a came to 98%. The IC50 on MNK2a stood at 2 nM.

With `Cc1cc(N=S2(=O)CCCC2)cc2ncnc(Nc3ccc(F)cc3O[C@@H]3CO[C@@H]4CCC[C@@H]43)c12` [Example 2.123], on MNK1a, the inhibition at 1 µM amounted to 100%. For the same molecule, the IC50 at MNK2a amounted to 1 nM.

With `Cc1cc(N=S(C)(C)=O)cc2ncnc(Nc3ccc(F)cc3O[C@@H]3CC[C@@H]4OCC[C@@H]43)c12` [Example 2.124], the inhibition at 1 µM against MNK1a is 83%. In addition, the IC50 on MNK2a amounted to 4 nM.

Regarding `Cc1cc(N=S2(=O)CCCC2)cc2ncnc(Nc3ccc(F)cc3O[C@@H]3CC[C@@H]4OCC[C@@H]43)c12` [Example 2.125], the inhibition at 1 µM at MNK1a was determined as 94%. Moreover, at MNK2a, the IC50 came out at 2 nM.

On to `Cc1cc(N=S(C)(C)=O)cc2ncnc(Nc3ccc(F)cc3OC3COC3)c12` [Example 2.126], for which the inhibition at 1 µM against MNK1a amounted to 93%. Besides, the IC50 on MNK2a came out at 10 nM.

`CS(C)(=O)=Nc1cc(F)c2c(Nc3cccnc3O[C@@H]3CCCNC3)ncnc2c1` [Example 3.1]: on MNK1a, the inhibition at 1 µM was 50%. The IC50 on MNK2a was 111 nM.

Take `Cc1cc(N=S(C)(C)=O)cc2ncnc(Nc3cccnc3O[C@H]3CC[C@H](N)CC3)c12` [Example 3.2]: the inhibition at 1 µM against MNK1a was found to be 101%. Further, on MNK2a, the IC50 was 4 nM.

With `Cc1cc(N=S2(=O)CCNCC2)cc2ncnc(Nc3ccc(F)cc3O[C@@H]3CO[C@H]4[C@@H]3OC[C@H]4O)c12` [Example 3.3], on MNK1a, the inhibition at 1 µM stood at 95%. Also, on MNK2a, the IC50 amounted to 5 nM.

Take `CS(C)(=O)=Nc1cc(F)c2c(Nc3cccnc3O[C@H]3CC[C@H](N)CC3)ncnc2c1` [Example 3.5]: the inhibition at 1 µM against MNK1a came to 101%. At MNK2a, the IC50 came out at 5 nM.

On to `Cc1cc(N=S(C)(C)=O)cc2ncnc(Nc3cccnc3O[C@@H]3CCCNC3)c12` [Example 3.6], for which the inhibition at 1 µM against MNK1a came to 80%. For the same molecule, the IC50 on MNK2a was determined as 69 nM.

For `CS(C)(=O)=Nc1cc(F)c2c(Nc3ccc(F)cc3O[C@@H]3CCNC3)ncnc2c1` [Example 3.7], at MNK1a, the inhibition at 1 µM was found to be 81%. In addition, the IC50 on MNK2a was 36 nM.

With `CS(C)(=O)=Nc1cc(F)c2c(Nc3ccc(F)cc3O[C@@H]3CCCNC3)ncnc2c1` [Example 3.8], at MNK1a, the inhibition at 1 µM is 79%. Besides, the IC50 on MNK2a worked out at 22 nM.

On to `Cc1cc(N=S(C)(C)=O)cc2ncnc(Nc3ccc(F)cc3O[C@@H]3CCCNC3)c12` [Example 3.9], for which the inhibition at 1 µM at MNK1a was found to be 89%. In addition, the IC50 at MNK2a was determined as 10 nM.

For the molecule `CO[C@H]1CC[C@H](Oc2cc(F)ccc2Nc2ncnc3cc(N=S4(=O)CCNCC4)cc(C)c23)CC1` [Example 3.10], on MNK1a, the inhibition at 1 µM was 88%. The IC50 on MNK2a stood at 8 nM.

As to `Cc1cc(N=S(C)(C)=O)cc2ncnc(Nc3ccc(F)cc3O[C@@H]3CCNC3)c12` [Example 3.11], the inhibition at 1 µM on MNK1a stood at 78%. Besides, the IC50 on MNK2a is 32 nM.

For the molecule `Cc1cc(N=S2(=O)CCCC2)cc2ncnc(Nc3ccc(F)cc3O[C@@H]3CCCNC3)c12` [Example 3.12], the inhibition at 1 µM at MNK1a was 95%. At MNK2a, the 50% inhibitory concentration (IC50) turned out to be 3 nM.

For the molecule `Cc1cc(N=S(C)(C)=O)cc2ncnc(Nc3ccc(F)cc3O[C@H]3CC[C@H](C#N)CC3)c12` [Example 4.4], at MNK1a, the inhibition at 1 µM came to 92%. The IC50 on MNK2a turned out to be 4 nM.

As to `CCOc1cc(N=S(C)(C)=O)cc2ncnc(Nc3ccc(F)cc3O[C@H]3CCOC3)c12` [Example 5.1], at MNK1a, the inhibition at 1 µM was found to be 101%. In addition, the half-maximal inhibitory concentration (IC50) at MNK2a is 2 nM.

As to `COc1cc(N=S(C)(C)=O)cc2ncnc(Nc3ccc(F)cc3O[C@H]3CC[C@H](OC)CC3)c12` [Example 5.3], at MNK1a, the inhibition at 1 µM is 90%. Also, at MNK2a, the IC50 worked out at 6 nM.

In the case of `CCOc1cc(N=S(C)(C)=O)cc2ncnc(Nc3ccc(F)cc3O[C@H]3CC[C@H](OC)CC3)c12` [Example 5.4], at MNK1a, the inhibition at 1 µM worked out at 78%. The concentration for half-maximal inhibition (IC50) on MNK2a was 15 nM.

Consider `CCOc1cc(N=S(C)(C)=O)cc2ncnc(Nc3ccc(F)cc3O[C@@H]3CO[C@H]4[C@@H]3OC[C@H]4OC)c12` [Example 5.5], for which the IC50 against MNK1a turned out to be 14 nM; at MNK2a, 2 nM.

For `CO[C@@H]1CO[C@H]2[C@@H]1OC[C@H]2Oc1cc(F)ccc1Nc1ncnc2cc(N=S(C)(C)=O)cc(OCCF)c12` [Example 5.6], the IC50 worked out at 25 nM against MNK1a and 2 nM at MNK2a.

Take `CO[C@@H]1CO[C@H]2[C@@H]1OC[C@H]2Oc1cc(F)ccc1Nc1ncnc2cc(N=S(C)(C)=O)cc(OCC(F)F)c12` [Example 5.7]: the results for the IC50 at MNK1a and on MNK2a were 43 nM and 2 nM, respectively.

For the molecule `CS(C)(=O)=Nc1cc(F)c2c(Nc3ccc(F)cc3O[C@@H]3CCCN(CCO)C3)ncnc2c1` [Example 6.1], the inhibition at 1 µM at MNK1a stood at 85%. In addition, on MNK2a, the half-maximal inhibitory concentration (IC50) came to 8 nM.

As for `Cc1cc(N=S(C)(C)=O)cc2ncnc(Nc3ccc(F)cc3O[C@@H]3CCCN(CC(F)(F)F)C3)c12` [Example 6.6], the inhibition at 1 µM on MNK1a came to 92%. For the same molecule, the concentration for half-maximal inhibition (IC50) at MNK2a was found to be 2 nM.

Regarding `Cc1cc(N=S2(=O)CCCC2)cc2ncnc(Nc3ccc(F)cc3O[C@@H]3CCCN(CCO)C3)c12` [Example 6.7], the inhibition at 1 µM at MNK1a turned out to be 100%. The IC50 on MNK2a came out at 2 nM.

As to `Cc1cc(N=S(C)(C)=O)cc2ncnc(Nc3ccc(F)cc3O[C@@H]3CCCN(CCO)C3)c12` [Example 6.9], the inhibition at 1 µM against MNK1a stood at 95%. In addition, the IC50 on MNK2a is 5 nM.

In the case of `Cc1cc(N=S(C)(C)=O)cc2ncnc(Nc3cccnc3O[C@@H]3CCCN(CCO)C3)c12` [Example 6.10], the inhibition at 1 µM on MNK1a was 89%. In addition, on MNK2a, the IC50 was 8 nM.
